The test system of one assay is PDE 6. The settings on record: read-out: PDE Selectivity (IC50); cited from earlier work.
The target of assay [1] is T1, TbPDE2A (Trypanosoma brucei, UniProt Q9GTN9). The assay can be described thus: Phosphodiesterase assay, recombinant TbPDE2A in yeast lysates. The format is biochemical. The procedure: Yeast cell lysis. Yeast cells grown to mid- to end-log phase in SC-leu medium were collected, resuspended quickly in an original volume of prewarmed YPD medium and incubated for an additional 3 h at 30° C. in order to maximize protein expression. Cells were then harvested, washed once in water and once in HBBB buffer (Hank's balanced salt solution, containing 50 mM HEPES, pH 7.5). The washed cell pellet was suspended in an equal volume of HBB containing a protease inhibitor cocktail (Complete™, Roche Molecular Biochemicals). […] The cell lysate was clarified by centrifugation for 15 min at 15,000×g.
T1 sequence (Q9GTN9 entry or part of it): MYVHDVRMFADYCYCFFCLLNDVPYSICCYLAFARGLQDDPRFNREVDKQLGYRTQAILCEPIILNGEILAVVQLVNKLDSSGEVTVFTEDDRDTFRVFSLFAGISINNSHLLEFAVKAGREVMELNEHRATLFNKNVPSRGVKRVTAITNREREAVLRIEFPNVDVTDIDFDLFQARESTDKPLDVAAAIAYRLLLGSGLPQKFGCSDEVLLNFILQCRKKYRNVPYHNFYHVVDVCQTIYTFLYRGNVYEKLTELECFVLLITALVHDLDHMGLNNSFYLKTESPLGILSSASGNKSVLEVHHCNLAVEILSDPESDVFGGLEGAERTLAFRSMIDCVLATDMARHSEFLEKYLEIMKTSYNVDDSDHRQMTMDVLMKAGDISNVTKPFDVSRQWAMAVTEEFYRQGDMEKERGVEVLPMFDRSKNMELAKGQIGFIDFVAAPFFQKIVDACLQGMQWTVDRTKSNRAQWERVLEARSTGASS
Phosphodiesterase Assay. […] […] Incubation was at 30° C. for 20 min. […] The precipitates were filtered through GF-C glass fiber fitters and filters were washed 3 times with ice-cold 1 mM NaOH/100 mM NaCl and were then dried and counted in liquid scintillation fluid (4 g/I omnifluor in toluene). All assays were carried out in triplicates and with three independent enzyme preparations. Controls for the efficiency of precipitation of cAMP and of AMP were always included. When assaying yeast cell extracts, control lysates from the PDE deletion strains transfected with empty vector was used as a background control. […] Inhibitors were dissolved in DMSO or ethanol, and the final concentration of the solvent never exceeded 1% in the assays reaction. Incubation times and enzyme concentrations were always adjusted so that less than 30% of the input substrate was hydrolyzed (2-5 μg total protein/100 μl assay). IC50 values were calculated by curve fitting on a four parameter dose-response model with variable slope, using the Prism software package of Graph Pad Inc., San Diego, Calif.

For a further assay, the system named is PDE 10. The settings on record: read-out: PDE Selectivity (IC50); cited from earlier work.
Assay [2] deals with total PDE activity of trypanosomal cell extracts. Put plainly: Total PDE activity in trypanosomal cell extracts. It counts as biochemical, Trypanosoma brucei. The text has this:
Chemical validation of the TbPDE2 family as a potential drug target. One of the novel PDEs of the invention, TbPDE2A, was expressed as a recombinant protein and was characterized in detail (see above). […].

The next assay deals with PDE 8. The following applies: read-out: PDE Selectivity (IC50); cited from earlier work.
For the next assay, the target named is TbPDE2B (Trypanosoma brucei, UniProt Q9GQU6). Put plainly: Phosphodiesterase assay, recombinant TbPDE2B expressed in HEK 293 cells. The format is biochemical. The following applies: for inhibition of recombinant TbPDE2B, in words: 1 μM [3H] cAMP, cGMP up to 200 μM. The procedure:
Expression of T. brucei PDE. The ORF sequence for T. brucei PDE was subcloned into the pcDNA 3.1-TOPO vector (Invitrogen) according to the manual (Eukaryotic TOPO TA Cloning, version C) and plasmid DNA purified as described above. Human embryonic kidney 293 (HEK 293) cells were transfected with 12 μg of DNA in 60 μl of GenePORTER Transfection Reagent (Gene Therapy Systems, San Diego, Calif.) in 100-mm dishes and kept at 37° C. in 5% CO2 for 24 h. After this period fresh medium was added, and incubated under the same conditions for an additional 24 h. The same amount of pcDNA vector containing the sequence for the Green Fluorescent Protein (GFP) was transfected under identical conditions as a positive control for expression and as a negative control for PDE activity. Two plates were harvested at a time and homogenized with 1 ml of homogenization buffer containing 40 mM Tris-HCl, pH 7.5; 15 mM benzamidine; 15 mM 2-mercaptoethanol; 1 μg/ml pepstatin A; 1 μg/ml leupeptin and 5 mM EDTA. The cell suspension was immediately subjected to sonication (3×5 s) on ice. One volume of glycerol and 1 mg/ml of bovine serum albumin were added immediately to the homogenate.
Phosphodiesterase assay. […]

The next assay has as its system PDE 3. The following applies: read-out: PDE Selectivity (IC50); cited from earlier work.
For assay [3], the target named is T2, human PDE8A (Homo sapiens, UniProt O60658). Put plainly: Activity of sf9 expressed PDE8A, undigested or trypsin digested. It counts as biochemical. Details: human PDE8A was expressed in Sf9 cells (ATCC, Manassas, Va.); This PDE8A was already N-terminally truncated at position 285; fused on or other part: N-terminal FLAG tag ([…]...) on the undigested construct. The settings on record: trypsin digested PDE8A; at 1 μM IBMX. The procedure: (§1) Briefly, human PDE8A was expressed in Sf9 cells (ATCC, Manassas, Va.). […] The supernatant (10^6 cells/digestion) was isolated and digested with the indicated amounts of trypsin at the indicated times at 30° C. The digestion was stopped with a 100-fold excess of soybean trypsin inhibitor. The activity was assayed with 1 μM cAMP. […] The digested PDE8A was analyzed by Western blot analysis using a peptide antibody specific to the C-terminus (PIL13) or the P4G7 monoclonal antibody.
Target sequence in this assay (O60658 whole entry, the tested form may be a part): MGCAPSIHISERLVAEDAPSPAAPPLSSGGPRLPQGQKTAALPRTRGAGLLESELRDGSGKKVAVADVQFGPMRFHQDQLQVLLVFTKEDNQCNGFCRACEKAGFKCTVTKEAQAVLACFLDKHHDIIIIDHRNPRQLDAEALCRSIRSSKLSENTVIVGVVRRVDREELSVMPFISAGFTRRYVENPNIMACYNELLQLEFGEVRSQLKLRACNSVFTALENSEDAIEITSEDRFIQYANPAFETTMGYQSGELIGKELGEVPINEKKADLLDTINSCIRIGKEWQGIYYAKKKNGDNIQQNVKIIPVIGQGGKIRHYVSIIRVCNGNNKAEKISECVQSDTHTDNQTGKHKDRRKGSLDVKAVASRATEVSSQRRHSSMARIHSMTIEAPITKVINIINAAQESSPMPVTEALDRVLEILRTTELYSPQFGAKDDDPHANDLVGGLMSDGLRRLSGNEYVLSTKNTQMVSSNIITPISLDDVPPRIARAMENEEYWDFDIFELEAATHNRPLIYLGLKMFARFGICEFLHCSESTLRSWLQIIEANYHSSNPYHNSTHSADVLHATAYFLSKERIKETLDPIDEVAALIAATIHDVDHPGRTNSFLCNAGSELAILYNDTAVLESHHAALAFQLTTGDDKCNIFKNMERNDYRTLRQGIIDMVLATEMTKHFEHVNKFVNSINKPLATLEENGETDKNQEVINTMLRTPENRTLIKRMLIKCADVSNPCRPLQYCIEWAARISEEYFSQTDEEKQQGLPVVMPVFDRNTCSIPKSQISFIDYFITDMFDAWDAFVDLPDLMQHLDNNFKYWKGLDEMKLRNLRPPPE

Assay [4] deals with PDE8A. The settings on record: Fisher et al. 1998; cited from earlier work.
Assay [5] has as its target T2, human PDE8A. Put plainly: Activity of sf9 expressed PDE8A, undigested or trypsin digested. It counts as biochemical. Details: made in house; host or cells: Sf9 insect cells (supernatant of cell extract). The following applies: undigested PDE8A. As for the experimental part: as §1
Target sequence in this assay (O60658 285-829): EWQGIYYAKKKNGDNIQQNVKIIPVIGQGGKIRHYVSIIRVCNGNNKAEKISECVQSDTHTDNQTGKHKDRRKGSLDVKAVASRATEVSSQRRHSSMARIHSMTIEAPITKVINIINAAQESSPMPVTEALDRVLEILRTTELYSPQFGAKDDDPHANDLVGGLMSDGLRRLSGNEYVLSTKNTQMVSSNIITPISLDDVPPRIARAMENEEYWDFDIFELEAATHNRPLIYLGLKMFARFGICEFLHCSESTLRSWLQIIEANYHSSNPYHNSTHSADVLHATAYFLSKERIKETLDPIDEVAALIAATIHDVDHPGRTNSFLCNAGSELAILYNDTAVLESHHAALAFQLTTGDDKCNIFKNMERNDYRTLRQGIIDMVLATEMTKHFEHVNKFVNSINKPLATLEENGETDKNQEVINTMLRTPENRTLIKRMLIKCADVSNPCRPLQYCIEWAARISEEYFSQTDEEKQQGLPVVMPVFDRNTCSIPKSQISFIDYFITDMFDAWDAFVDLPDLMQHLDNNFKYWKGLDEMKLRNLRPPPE
In assay [6] the test system is PDE8A. Put plainly: Activity of immunoprecipitated PDE8A from Hut78 or CD4+ cells. It counts as biochemical, human. As for the experimental part:
Hut78 or CD4^+ cells were harvested at various points after stimulation with CD3 and CD28 antibodies. Cells were resuspended in IP buffer (20 mM Tris pH7.5, 100 mM NaCl, 1 mM benzamidine, 1 μg/mL leupeptin, 1 μg/mL pepstatin, 50 mM NaF, 2 mM EDTA) and sonicated. The cells were centrifuged at 15000×g for 10 minutes. The supernatant was precleared for 2 hours with 0.5 μg mouse IgG and 10 μL protein-G agarose (Santa Cruz Biotechnology, Santa Cruz, Calif.). PDE8A monoclonal antibody was preloaded onto 10 μL protein G-agarose and added to the precleared supernatant. The immunoprecipitations were agitated overnight at 4° C. and the beads washed three times with IP buffer containing 1M NaCl followed by one wash with IP buffer.

Assay [7] relates to PDE8A. Put plainly: PDE activity of monoQ HPLC fractions of hut78 cells containing only PDE8A. The format is biochemical, human. The settings on record: 0.01 μM cAMP. As for the experimental part:
(§2) Since pure CD4^+ T cells can only be obtained in limited quantities, a human CD4^+ T cell line, hut78, (ATCC, Manassas, Va.), was used to study the activity of PDE8A. Hut78 cells (2×10^8) were resuspended in 20 mM Tris pH 7.5 buffer containing protease inhibitors (Boehringer Mannheim, Indianapolis, Ind.) and sonicated. The supernatant was removed after centrifugation at 15000×g for 10 minutes and applied to a Mono Q column attached to a Rainin Dynamax HPLC system (Ameryville, Calif.). A NaCl gradient (0-0.8M) was passed through the column and 250 uL fractions were collected. The fractions were assayed for activity using either 1 μM or 0.01 μM cAMP as substrate and the indicated concentration of inhibitor (FIG. 5). Western blot analysis was also performed (10 μL/well) using PDE7A or 8A antibodies.

A further assay deals with PDEs (Non-selective). The settings on record: read-out: PDE Selectivity (IC50); cited from earlier work.
Assay [8] has as its system PDE8A and PDE7A from hut78 cells. Put plainly: PDE activity of monoQ HPLC fractions of hut78 cells, low Km peak. It counts as biochemical, human. The following applies: 0.01 μM cAMP; 10 μM rolipram or 100 μM IBMX. As for the experimental part: as §2
Assay [9] has as its target T1, TbPDE2A. The following applies: Table 2, from reference; cited from earlier work.
A further assay has as its system TbPDE2C. Put plainly: Recombinant TbPDE2C expressed in S. cerevisiae. The format is biochemical, Trypanosoma brucei. The text has this: We also have expressed a second family member, TbPDE2C, as a recombinant protein in the yeast S. cerevisiae and have characterized it was previously done for TbPDE2A.
Setting [10] is: full-size TbPDE2A, yeast lysates, 1 μM cAMP.

We go through four compounds from patent US7598067B2, “PDEs and uses thereof” (priority 2000, dated 2009).

Molecules are shown by their SMILES. “And” between values parts separate entries of the source, which are not always exact repeats. Equal values may be shown once. Read-outs that look alike come from different tables or passages of the source. Some results are limits rather than exact numbers.

Chain of TbPDE2B (Q9GQU6 entry or part of it): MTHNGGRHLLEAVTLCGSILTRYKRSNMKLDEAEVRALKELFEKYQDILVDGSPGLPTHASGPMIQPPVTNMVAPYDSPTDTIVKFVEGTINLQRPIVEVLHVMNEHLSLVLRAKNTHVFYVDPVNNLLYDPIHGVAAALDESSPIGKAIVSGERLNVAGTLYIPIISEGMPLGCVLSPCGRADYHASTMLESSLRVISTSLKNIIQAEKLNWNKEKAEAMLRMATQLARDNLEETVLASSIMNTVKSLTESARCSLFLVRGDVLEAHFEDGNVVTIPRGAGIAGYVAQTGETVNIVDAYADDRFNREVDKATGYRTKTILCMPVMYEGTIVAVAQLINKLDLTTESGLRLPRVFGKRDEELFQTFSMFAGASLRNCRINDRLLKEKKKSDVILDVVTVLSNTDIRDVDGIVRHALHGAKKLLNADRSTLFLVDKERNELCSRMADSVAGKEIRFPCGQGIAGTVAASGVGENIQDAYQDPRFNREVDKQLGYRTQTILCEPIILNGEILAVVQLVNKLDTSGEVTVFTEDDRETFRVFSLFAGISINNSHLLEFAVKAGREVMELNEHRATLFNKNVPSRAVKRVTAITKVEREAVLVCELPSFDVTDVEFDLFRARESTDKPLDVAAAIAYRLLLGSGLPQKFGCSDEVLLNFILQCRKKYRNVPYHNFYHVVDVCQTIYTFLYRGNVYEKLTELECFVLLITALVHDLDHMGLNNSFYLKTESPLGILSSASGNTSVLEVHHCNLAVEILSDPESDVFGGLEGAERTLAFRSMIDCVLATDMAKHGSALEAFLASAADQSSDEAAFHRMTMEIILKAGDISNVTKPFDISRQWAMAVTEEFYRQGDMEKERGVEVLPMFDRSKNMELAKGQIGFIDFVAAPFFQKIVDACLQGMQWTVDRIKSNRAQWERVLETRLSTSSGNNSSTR

With `OCCN(CCO)c1nc(N2CCCCC2)c2nc(N(CCO)CCO)nc(N3CCCCC3)c2n1` [Dipyridamole, dipyridamole], the half-maximal inhibitory concentration (IC50) in the assay with PDE 6 is 0.38 µM; on TbPDE2A [1] (setting [10]), 5.8 µM and 5.9 µM; in the assay with PDE 10, 1.1 µM; in the assay on PDE 8 it was 4.5 µM; at TbPDE2B, 27 µM. In addition, the “IC50 for TbPDE2A (μM)” value at TbPDE2A [1] (setting [10]) is recorded as “low micromolar range”. Moreover, the “total PDE activity” value in assay [2] is reported as “marked, if not complete, reduction”.

On to `CSc1ccc(C(=O)c2[nH]c(=O)[nH]c2C)cc1` [Enoximone, enoximone], for which the half-maximal inhibitory concentration (IC50) was 1 µM in the assay with PDE 3 and more than 100 µM at TbPDE2B. The “inhibition of recombinant TbPDE2B, in words” value (shortened to “inhibition … in words”) at TbPDE2B is “No IC50 could be obtained”.

Consider `CC(C)Cn1c(=O)n(C)c(=O)c2[nH]cnc21` [IBMX, 3-Isobutyl-1-methylxanthine], for which the “effectiveness on TbPDE2A, in words” value on TbPDE2A [1] is given as “not effective”. Besides, on TbPDE2A [1] (100 μM inhibitor, 1 μM cAMP, FIG. 26), the “effect on TbPDE2A activity in initial screening” value is listed as “ineffective”. The IC50 at TbPDE2A [1] (setting [10]) is 545 µM; in the assay on PDEs (Non-selective) it was 2 to 50 µM; at TbPDE2B, more than 1000 µM. This compound also registered an activity retained on human PDE8A [3] of 40%. Also, in the assay with PDE8A [4], the “sensitivity of recombinant expressed PDE8A” value is “resistant”. The “IBMX inhibition of undigested PDE8A” value at human PDE8A [5] is on record as “resistant”. Besides, the “activity of undigested PDE8A” value on human PDE8A [5] (at 1 μM IBMX) is recorded as “unchanged”. Besides, the “immunoprecipitated PDE8A activity from hut78 cells” value with PDE8A [6] (100 μM IBMX, FIG. 6A) was “inhibited”. Moreover, the “increase in immunoprecipitated PDE8A activity after activation” value in the assay with PDE8A [6] (CD4+ T cells) is reported as “could be inhibited”. Further, in the assay with PDE8A [7], the “activity of fractions that contained only PDE8A” value is reported as “inhibited”. For the same compound, in assay [8], the “sensitivity of the PDE activity peak” value is “sensitive”. Also, the “inhibition … in words” value on TbPDE2B is reported as “extremely low sensitivity”.

For the compound `Nc1nc2c(ncn2[C@@H]2O[C@@H]3COP(=O)(O)O[C@H]3[C@H]2O)c(=O)[nH]1` [cGMP], the “cAMP hydrolysis by TbPDE2A in the presence of cGMP” value on TbPDE2A [1] (100-fold excess of cGMP, full-size and truncated constructs) was “unaffected”. Also, the IC50 at TbPDE2A [9] is more than 100 µM; on TbPDE2B (Substrate concentration 1 μM [3H]-cAMP, read-out: TbPDE2B IC50 (μM) (n = 3)), more than 200 µM. Further, the “effect on activity of TbPDE2C” value in the assay with TbPDE2C is given as “does not affect the activity”. Besides, on TbPDE2B, the “inhibition … in words” value is given as “not stimulated or inhibited”.

For orientation: IC50 means the midpoint of a concentration-inhibition curve.
